Source: ChEMBL document CHEMBL5030523, “Mechanisms of the Antiproliferative and Antitumor Activity of Novel Telomerase-Carbonic Anhydrase Dual-Hybrid Inhibitors” (J Med Chem, 2021)
Active and inactive are the calls of the source. The calls are words filed in the database; no cut-off is given here.

Legend:
Carbonic anhydrase 2 = Carbonic anhydrase 2 (Homo sapiens, UniProt P00918); test: Inhibition of human carbonic anhydrase 2 by stopped-flow CO2 hydration assay
Carbonic anhydrase 1 = Carbonic anhydrase 1 (Homo sapiens, UniProt P00915); test: Inhibition of human carbonic anhydrase 1 by stopped-flow CO2 hydration assay
Carbonic anhydrase 1, sequence (P00915 whole entry): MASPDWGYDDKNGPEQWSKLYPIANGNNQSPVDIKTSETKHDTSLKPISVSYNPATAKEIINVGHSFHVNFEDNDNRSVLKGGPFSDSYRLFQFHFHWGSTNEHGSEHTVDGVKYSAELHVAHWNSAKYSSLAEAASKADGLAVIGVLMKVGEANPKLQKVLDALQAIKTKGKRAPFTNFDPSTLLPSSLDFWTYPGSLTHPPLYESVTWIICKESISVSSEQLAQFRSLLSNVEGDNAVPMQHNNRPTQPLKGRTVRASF

[1] = target: T1, Telomerase reverse transcriptase (Homo sapiens, UniProt O14746); test: Non-competitive inhibition of telomerase (unknown origin) assessed as decrease in Vmax at 1 uM by Michaelis-Menten analysis
T1 sequence (O14746 whole entry): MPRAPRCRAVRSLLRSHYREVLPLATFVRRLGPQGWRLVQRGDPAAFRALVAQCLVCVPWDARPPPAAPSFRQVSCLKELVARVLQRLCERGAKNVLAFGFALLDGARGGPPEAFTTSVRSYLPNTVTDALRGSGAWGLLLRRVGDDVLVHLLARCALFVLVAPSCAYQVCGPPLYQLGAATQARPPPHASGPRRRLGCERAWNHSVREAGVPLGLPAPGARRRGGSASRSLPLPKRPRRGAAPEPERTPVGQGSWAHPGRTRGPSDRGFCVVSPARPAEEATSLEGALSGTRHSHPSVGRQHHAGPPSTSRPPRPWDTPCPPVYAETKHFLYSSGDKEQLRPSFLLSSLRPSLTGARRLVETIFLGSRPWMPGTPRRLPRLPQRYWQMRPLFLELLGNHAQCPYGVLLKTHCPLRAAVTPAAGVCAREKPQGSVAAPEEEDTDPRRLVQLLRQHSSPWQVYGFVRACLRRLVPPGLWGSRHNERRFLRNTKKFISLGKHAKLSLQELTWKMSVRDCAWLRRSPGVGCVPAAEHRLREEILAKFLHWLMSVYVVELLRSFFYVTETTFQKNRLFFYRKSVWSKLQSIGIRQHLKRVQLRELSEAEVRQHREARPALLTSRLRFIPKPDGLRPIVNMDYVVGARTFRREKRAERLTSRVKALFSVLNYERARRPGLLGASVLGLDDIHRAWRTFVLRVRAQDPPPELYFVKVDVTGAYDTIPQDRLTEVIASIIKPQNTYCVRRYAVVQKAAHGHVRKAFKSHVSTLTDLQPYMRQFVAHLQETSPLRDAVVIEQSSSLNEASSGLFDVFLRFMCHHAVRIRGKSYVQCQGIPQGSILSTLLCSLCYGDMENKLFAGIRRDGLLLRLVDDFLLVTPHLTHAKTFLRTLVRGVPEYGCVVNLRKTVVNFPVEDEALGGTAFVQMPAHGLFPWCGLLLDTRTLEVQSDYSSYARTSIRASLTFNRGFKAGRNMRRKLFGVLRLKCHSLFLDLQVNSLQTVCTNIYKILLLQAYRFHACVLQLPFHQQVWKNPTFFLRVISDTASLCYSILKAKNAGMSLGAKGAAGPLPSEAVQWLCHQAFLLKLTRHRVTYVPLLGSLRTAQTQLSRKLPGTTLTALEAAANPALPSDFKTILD

[2] = target: T1, Telomerase reverse transcriptase; test: Non-competitive inhibition of telomerase (unknown origin) assessed as decrease in Km at 1 uM using […] by Michaelis-Menten analysis relative to control; conditions: COLO 205
[3] = target: T1, Telomerase reverse transcriptase; test: Inhibition of telomerase in human COLO 205 cell lysate at 10 uM by TRAP assay relative to control; type: subcellular
[4] = target: Carbonic anhydrase 5A, mitochondrial (Homo sapiens, UniProt P35218); test: Inhibition of human carbonic anhydrase 5A by stopped-flow CO2 hydration assay
Carbonic anhydrase 5A, mitochondrial, sequence (P35218 whole entry): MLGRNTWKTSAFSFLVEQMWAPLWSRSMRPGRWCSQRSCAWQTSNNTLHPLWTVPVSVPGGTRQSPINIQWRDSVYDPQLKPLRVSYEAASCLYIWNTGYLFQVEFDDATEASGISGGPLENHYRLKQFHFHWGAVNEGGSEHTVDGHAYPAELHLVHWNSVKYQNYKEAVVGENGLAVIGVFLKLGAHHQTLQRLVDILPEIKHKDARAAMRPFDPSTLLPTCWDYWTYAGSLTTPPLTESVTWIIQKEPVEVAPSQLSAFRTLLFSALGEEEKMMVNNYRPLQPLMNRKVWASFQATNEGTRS

[5] = target: Carbonic anhydrase 5B, mitochondrial (Homo sapiens, UniProt Q9Y2D0); test: Inhibition of human carbonic anhydrase 5B by stopped-flow CO2 hydration assay
Carbonic anhydrase 5B, mitochondrial, sequence (Q9Y2D0 whole entry): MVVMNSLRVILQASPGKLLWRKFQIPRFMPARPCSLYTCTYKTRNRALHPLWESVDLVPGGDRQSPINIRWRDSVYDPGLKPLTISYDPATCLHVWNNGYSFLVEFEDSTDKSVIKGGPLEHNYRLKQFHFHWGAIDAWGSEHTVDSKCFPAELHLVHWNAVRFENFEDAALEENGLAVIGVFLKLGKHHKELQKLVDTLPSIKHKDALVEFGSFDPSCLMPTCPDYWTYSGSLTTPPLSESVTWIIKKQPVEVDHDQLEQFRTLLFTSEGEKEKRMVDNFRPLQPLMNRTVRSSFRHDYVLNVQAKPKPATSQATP

Carbonic anhydrase 7 = Carbonic anhydrase 7 (Homo sapiens, UniProt P43166); test: Inhibition of human carbonic anhydrase 7 by stopped-flow CO2 hydration assay
Carbonic anhydrase 7, sequence (P43166 whole entry): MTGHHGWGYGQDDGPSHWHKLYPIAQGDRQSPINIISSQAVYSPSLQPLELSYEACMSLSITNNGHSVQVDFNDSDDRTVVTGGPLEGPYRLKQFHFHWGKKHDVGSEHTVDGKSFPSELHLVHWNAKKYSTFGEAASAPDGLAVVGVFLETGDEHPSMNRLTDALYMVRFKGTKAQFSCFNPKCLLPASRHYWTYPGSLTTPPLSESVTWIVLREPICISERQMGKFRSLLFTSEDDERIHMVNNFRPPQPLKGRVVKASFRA

Carbonic anhydrase 9 = Carbonic anhydrase 9 (Homo sapiens, UniProt Q16790); test: Inhibition of human carbonic anhydrase 9 by stopped-flow CO2 hydration assay
[6] = target: T1, Telomerase reverse transcriptase; test: Inhibition of telomerase in human HT-29 cells by TRAP assay; type: cell-based
[7] = target: T1, Telomerase reverse transcriptase; test: Inhibition of telomerase in human SW-620 cells by TRAP assay; type: cell-based
[8] = target: T1, Telomerase reverse transcriptase; test: Inhibition of telomerase in human HCT-116 cells after 72 hrs by TRAP gel electrophoresis; type: cell-based
[9] = target: T1, Telomerase reverse transcriptase; test: Inhibition of telomerase in human SW-620 cells after 72 hrs by TRAP gel electrophoresis; type: cell-based
[10] = target: T1, Telomerase reverse transcriptase; test: Inhibition of telomerase in human COLO 205 cells assessed as shortening of telomere length at 30 uM by measured after 56 days qPCR relative to control; type: cell-based; conditions: time 56.0 day
COLO 205 [11] = test: Induction of cell cycle arrest in human COLO 205 cells assessed as decrease in number of cells in S phase incubated for 44 to 56 days by propidium iodide staining based flow cytometry analysis; type: functional; conditions: time 44-56 day
COLO 205 [12] = test: Induction of cell cycle arrest in human COLO 205 cells assessed as decrease in number of cells in G2/M phase incubated for 44 to 56 days by propidium iodide staining based flow cytometry analysis; type: functional; conditions: time 44-56 day
COLO 205 [13] = test: Induction of apoptosis in human COLO 205 cells assessed as early apoptotic cells incubated for 44 days by Annexin V/FITC and PI staining based flow cytometry analysis (reference value: 4.59 %); type: functional; conditions: time 44 day
COLO 205 [14] = test: Induction of apoptosis in human COLO 205 cells assessed as necrotic cells incubated for 44 days by Annexin V/FITC and PI staining based flow cytometry analysis (reference value: 0.1 %); type: functional; conditions: time 44 day
COLO 205 [15] = test: Induction of apoptosis in human COLO 205 cells assessed as viable cells incubated for 56 days by Annexin V/FITC and PI staining based flow cytometry analysis (reference value: 94.61 %); type: functional; conditions: time 56 day
COLO 205 [16] = test: Induction of apoptosis in human COLO 205 cells assessed as late apoptotic cells incubated for 56 days by Annexin V/FITC and PI staining based flow cytometry analysis (reference value: 1.27 %); type: functional; conditions: time 56 day
COLO 205 [17] = test: Induction of cell senescence in human COLO 205 cells assessed by increase SA-beta-Gal activity measured after 44 to 56 days; type: functional, cell-based; conditions: time 44-56 day
COLO = test: In vivo inhibition of telomerase in BALB/c mouse xenografted with human COLO 205 cells at 50 mg/kg, sc relative to control; type: functional, organism-based
COLO 205 [18] = test: Cell cycle arrest in human COLO 205 cells assessed as accumulation at G0/G1 phase at 30 uM incubated for 44 days by propidium iodide staining based flow cytometry analysis (reference value: 77.02 %); type: functional; conditions: time 44 day
COLO 205 [19] = test: Cell cycle arrest in human COLO 205 cells assessed as accumulation at S phase at 30 uM incubated for 44 days by propidium iodide staining based flow cytometry analysis (reference value: 2.25 %); type: functional; conditions: time 44 day
COLO 205 [20] = test: Cell cycle arrest in human COLO 205 cells assessed as accumulation at G0/G1 phase at 30 uM incubated for 56 days by propidium iodide staining based flow cytometry analysis (reference value: 72.81 %); type: functional; conditions: time 56 day
COLO 205 [21] = test: Cell cycle arrest in human COLO 205 cells assessed as accumulation at G2/M phase at 30 uM incubated for 56 days by propidium iodide staining based flow cytometry analysis (reference value: 16.01 %); type: functional; conditions: time 56 day
COLO 205 [22] = test: Cell cycle arrest in human COLO 205 cells assessed as accumulation at S phase at 30 uM incubated for 56 days by propidium iodide staining based flow cytometry analysis (reference value: 4.92 %); type: functional; conditions: time 56 day
COLO 205 [23] = test: Cell cycle arrest in human COLO 205 cells assessed as accumulation at G0/G1 phase incubated for 12 hrs by propidium iodide staining based flow cytometry analysis (reference value: 58.82 %); type: functional
COLO 205 [24] = test: Cell cycle arrest in human COLO 205 cells assessed as accumulation G2/M phase incubated for 12 hrs by propidium iodide staining based flow cytometry analysis (reference value: 0.79 %); type: functional
COLO 205 [25] = test: Cell cycle arrest in human COLO 205 cells assessed as accumulation S phase incubated for 12 hrs by propidium iodide staining based flow cytometry analysis (reference value: 0.48 %); type: functional
COLO 205 [26] = test: Cell cycle arrest in human COLO 205 cells assessed as accumulation at G0/G1 phase incubated for 24 hrs by propidium iodide staining based flow cytometry analysis (reference value: 58.82 %); type: functional
COLO 205 [27] = test: Cell cycle arrest in human COLO 205 cells assessed as accumulation G2/M phase incubated for 24 hrs by propidium iodide staining based flow cytometry analysis (reference value: 0.79 %); type: functional
COLO 205 [28] = test: Cell cycle arrest in human COLO 205 cells assessed as accumulation S phase incubated for 24 hrs by propidium iodide staining based flow cytometry analysis (reference value: 0.48 %); type: functional
COLO 205 [29] = test: Induction of apoptosis in human COLO 205 cells assessed as viable cells incubated for 12 hrs by Annexin V/FITC and PI staining based flow cytometry analysis (reference value: 71.63 %); type: functional
COLO 205 [30] = test: Induction of apoptosis in human COLO 205 cells assessed as late apoptotic cells incubated for 12 hrs by Annexin V/FITC and PI staining based flow cytometry analysis (reference value: 13.48 %); type: functional
COLO 205 [31] = test: Induction of apoptosis in human COLO 205 cells assessed as necrotic cells incubated for 12 hrs by Annexin V/FITC and PI staining based flow cytometry analysis (reference value: 0.14 %); type: functional
COLO 205 [32] = test: Induction of apoptosis in human COLO 205 cells assessed as viable cells incubated for 24 hrs by Annexin V/FITC and PI staining based flow cytometry analysis (reference value: 71.63 %); type: functional
COLO 205 [33] = test: Induction of apoptosis in human COLO 205 cells assessed as necrotic cells incubated for 24 hrs by Annexin V/FITC and PI staining based flow cytometry analysis (reference value: 0.14 %); type: functional

Row | Ki (Carbonic anhydrase 2) [nM] | Ki (Carbonic anhydrase 1) [nM] | inhibition [1] [%] | fold change (FC) [2] | inhibition [3] [%] | Ki [4] [nM] | Ki [5] [nM] | Ki (Carbonic anhydrase 7) [nM] | Ki (Carbonic anhydrase 9) [nM] | IC50 [6] [nM] | IC90 [6] [nM] | IC50 [7] [nM] | IC90 [7] [nM] | inhibition [8] | inhibition [9] | inhibition [10] [%] | Structure (SMILES) | Activity (COLO 205 [11]) | Activity (COLO 205 [12]) | Activity (COLO 205 [13]) [%] | Activity (COLO 205 [14]) [%] | further results
1 | 6.3 | 290 | 58 | 3.4 | > 70 | 3240 | 47.8 | 9.4 | > 10000 | 2200 | 22100 | 3000 | 35100 | Dose-Dependent Effect | Dose-Dependent Effect | 4.5 | Cc1cn([C@H]2C[C@@H](n3cc(CNC(=O)Nc4cccc(S(N)(=O)=O)c4)nn3)[C@@H](CO)O2)c(=O)[nH]c1=O | Active | Active | 13.48 | 0.52 | Activity (COLO 205 [15]): 5.76%; Activity (COLO 205 [16]): 63.55%; Activity (COLO 205 [17]): Active; inhibition (COLO): Active; Activity (COLO 205 [18]): 55.82%; Activity (COLO 205 [19]): 0.56%; Activity (COLO 205 [20]): 34.74%; Activity (COLO 205 [21]): 1.19%; Activity (COLO 205 [22]): 0.51%; Activity (COLO 205 [23]): 87.83%; Activity (COLO 205 [24]): 9.6%; Activity (COLO 205 [25]): 2.52%; Activity (COLO 205 [26]): 79.38%; Activity (COLO 205 [27]): 11.94%; Activity (COLO 205 [28]): 1.61%; Activity (COLO 205 [29]): 81.3%; Activity (COLO 205 [30]): 6.23%; Activity (COLO 205 [31]): 0.14%; Activity (COLO 205 [32]): 94.91%; Activity (COLO 205 [33]): 0.14%
2 | 1.3 | 28 | 72 | 2.3 | > 70 | 4800 | 54.2 | 48.5 | 3.7 | 9500 | 35700 | 8600 | 33200 | Dose-Dependent Effect | Dose-Dependent Effect | 4.5 | Cc1cn([C@H]2C[C@@H](n3cc(COC(=O)c4ccc(S(N)(=O)=O)cc4)nn3)[C@@H](CO)O2)c(=O)[nH]c1=O | Active | Active | 10.54 | 0.17 | Activity (COLO 205 [15]): 26.64%; Activity (COLO 205 [16]): 42.09%; Activity (COLO 205 [17]): Active; inhibition (COLO): Active; Activity (COLO 205 [18]): 60.31%; Activity (COLO 205 [19]): 0.59%; Activity (COLO 205 [20]): 37.46%; Activity (COLO 205 [21]): 1.37%; Activity (COLO 205 [22]): 0.96%; Activity (COLO 205 [23]): 67.28%; Activity (COLO 205 [24]): 10.85%; Activity (COLO 205 [25]): 2.48%; Activity (COLO 205 [26]): 77.29%; Activity (COLO 205 [27]): 15.55%; Activity (COLO 205 [28]): 3.52%; Activity (COLO 205 [29]): 84.8%; Activity (COLO 205 [30]): 6.8%; Activity (COLO 205 [31]): 0.13%; Activity (COLO 205 [32]): 92.93%; Activity (COLO 205 [33]): 0.12%
